Reference: ChEMBL document CHEMBL1201861, “Genomics of Drug Sensitity in Cancer screening data, Wellcome Trust Sanger Institute”

Columns and labels:
Assay in all cases: cells
Assay type in all cases: functional, cell-based, Homo sapiens
[1] = system: COLO-800; details: Homo sapiens, COLO-800;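 also: growth inhibition of COLO-800 cells, read out with a cell viability assay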
Description: SANGER: Inhibition of human COLO-800 cell growth in a cell viability assay.

[2] = system: COLO-829; details: Homo sapiens, COLO-829
Description: SANGER: Inhibition of human COLO-829 cell growth in a cell viability assay.

[3] = system: CTB-1; details: Homo sapiens, CTB-1
Description: SANGER: Inhibition of human CTB-1 cell growth in a cell viability assay.

[4] = system: DEL; details: Homo sapiens, DEL;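 also: growth inhibition of the human DEL cell line, read out with a cell viability assay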
Description: SANGER: Inhibition of human DEL cell growth in a cell viability assay.

[5] = system: DMS-79; details: Homo sapiens, DMS-79;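 also: growth inhibition measured with a cell viability assay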
Description: SANGER: Inhibition of human DMS-79 cell growth in a cell viability assay.

[6] = system: EC-GI-10; details: Homo sapiens, EC-GI-10
Description: SANGER: Inhibition of human EC-GI-10 cell growth in a cell viability assay.

[7] = system: ES1; details: Homo sapiens, ES1;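 also: growth inhibition of ES1 cells, read out with a cell viability assay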
Description: SANGER: Inhibition of human ES1 cell growth in a cell viability assay.

[8] = system: EW-16; details: Homo sapiens, EW-16;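 also: growth inhibition of human EW-16 cells, read out as cell viability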
Description: SANGER: Inhibition of human EW-16 cell growth in a cell viability assay.

[9] = system: GAK; details: Homo sapiens, GAK;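 also: cell growth inhibition read out by a cell viability assay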
Description: SANGER: Inhibition of human GAK cell growth in a cell viability assay.

[10] = system: GT3TKB; details: Homo sapiens, GT3TKB;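 also: growth inhibition of the cell line, read out with a cell viability assay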
Description: SANGER: Inhibition of human GT3TKB cell growth in a cell viability assay.

[11] = system: HEL; details: Homo sapiens, HEL;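 also: growth inhibition of HEL cells, read out with a cell viability assay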
Description: SANGER: Inhibition of human HEL cell growth in a cell viability assay.

[12] = system: HL-60; details: Homo sapiens, HL-60;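 also: growth inhibition of human HL-60 cells, read out with a cell viability assay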
Description: SANGER: Inhibition of human HL-60 cell growth in a cell viability assay.

[13] = system: JAR; details: Homo sapiens, JAR;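 also: growth inhibition of human JAR cells determined with a cell viability assay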
Description: SANGER: Inhibition of human JAR cell growth in a cell viability assay.

[14] = system: K562; details: Homo sapiens, K562
Description: SANGER: Inhibition of human K-562 cell growth in a cell viability assay.

[15] = system: KARPAS-45; details: Homo sapiens, KARPAS-45;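 also: inhibition of cell line growth, read out through a viability assay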
Description: SANGER: Inhibition of human KARPAS-45 cell growth in a cell viability assay.

[16] = system: KE-37; details: Homo sapiens, KE-37;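 also: growth inhibition of KE-37 cells, read out with a cell viability assay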
Description: SANGER: Inhibition of human KE-37 cell growth in a cell viability assay.

[17] = system: KU812 cell line; details: Homo sapiens, KU812;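 also: growth inhibition of KU812 cells, read out with a cell viability assay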
Description: SANGER: Inhibition of human KU812 cell growth in a cell viability assay.

[18] = system: LAN-6; details: Homo sapiens, LAN-6;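 also: growth inhibition of LAN-6 cells, determined with a cell viability assay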
Description: SANGER: Inhibition of human LAN-6 cell growth in a cell viability assay.

[19] = system: LB373-MEL-D; details: Homo sapiens, LB373-MEL-D;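 also: growth inhibition of the cell line, read out in a cell viability assay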
Description: SANGER: Inhibition of human LB373-MEL-D cell growth in a cell viability assay.

[20] = system: LB996-RCC; details: Homo sapiens, LB996-RCC
Description: SANGER: Inhibition of human LB996-RCC cell growth in a cell viability assay.

[21] = system: LC-2-ad; details: Homo sapiens, LC-2-ad;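 also: growth inhibition of human LC-2-ad cells, read out with a cell viability assay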
Description: SANGER: Inhibition of human LC-2-ad cell growth in a cell viability assay.

[22] = system: LNCaP-Clone-FGC; details: Homo sapiens, LNCaP-Clone-FGC
Description: SANGER: Inhibition of human LNCaP-Clone-FGC cell growth in a cell viability assay.

[23] = system: LS-513; details: Homo sapiens, LS-513
Description: SANGER: Inhibition of human LS-513 cell growth in a cell viability assay.

[24] = system: LU-134-A; details: Homo sapiens, LU-134-A
Description: SANGER: Inhibition of human LU-134-A cell growth in a cell viability assay.

[25] = system: NCI-H209; details: Homo sapiens, NCI-H209;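 also: growth inhibition of human NCI-H209 cells, measured by a cell viability assay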
Description: SANGER: Inhibition of human NCI-H209 cell growth in a cell viability assay.

[26] = system: NCI-H226; details: Homo sapiens, NCI-H226;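 also: cell viability read-out used to gauge growth inhibition of the cells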
Description: SANGER: Inhibition of human NCI-H226 cell growth in a cell viability assay.

[27] = system: NCI-H720; details: Homo sapiens, NCI-H720;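 also: growth inhibition of human NCI-H720 cells determined by a cell viability assay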
Description: SANGER: Inhibition of human NCI-H720 cell growth in a cell viability assay.

[28] = system: NH-12; details: Homo sapiens, NH-12;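 also: growth inhibition of NH-12 cells, read out with a cell viability assay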
Description: SANGER: Inhibition of human NH-12 cell growth in a cell viability assay.

[29] = system: NOS-1; details: Homo sapiens, NOS-1;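 also: growth inhibition of the human NOS-1 cell line, read out with a cell viability assay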
Description: SANGER: Inhibition of human NOS-1 cell growth in a cell viability assay.

[30] = system: NTERA-2-cl-D1; details: Homo sapiens, NTERA-2-cl-D1;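 also: inhibition of cell growth, measured with a cell viability assay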
Description: SANGER: Inhibition of human NTERA-S-cl-D1 cell growth in a cell viability assay.

[31] = system: P30-OHK; details: Homo sapiens, P30-OHK;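 also: growth inhibition of the P30-OHK cell line, read out with a cell viability assay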
Description: SANGER: Inhibition of human P30-OHK cell growth in a cell viability assay.

[32] = system: PSN1; details: Homo sapiens, PSN1;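 also: suppression of growth of human PSN1 cells, read out by a cell viability assay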
Description: SANGER: Inhibition of human PSN1 cell growth in a cell viability assay.

[33] = system: QIMR-WIL; details: Homo sapiens, QIMR-WIL;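 also: growth inhibition of QIMR-WIL cells, read out with a cell viability assay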
Description: SANGER: Inhibition of human QIMR-WIL cell growth in a cell viability assay.

[34] = system: RH-1; details: Homo sapiens, RH-1;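 also: growth inhibition of human RH-1 cells, read out with a cell viability assay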
Description: SANGER: Inhibition of human RH-1 cell growth in a cell viability assay.

[35] = system: RPMI-8866; details: Homo sapiens, RPMI-8866
Description: SANGER: Inhibition of human RPMI-8866 cell growth in a cell viability assay.

[36] = system: SF-126; details: Homo sapiens, SF-126;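 also: growth inhibition of human SF126 cells, read out with a cell viability assay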
Description: SANGER: Inhibition of human SF126 cell growth in a cell viability assay.

[37] = system: SF-539; details: Homo sapiens, SF-539;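 also: Read-out is a cell viability assay, with IC50 reflecting inhibition of cell growth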
Description: SANGER: Inhibition of human SF539 cell growth in a cell viability assay.

[38] = system: SK-LMS-1; details: Homo sapiens, SK-LMS-1;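 also: growth inhibition of human SK-LMS-1 cells, read out with a cell viability assay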
Description: SANGER: Inhibition of human SK-LMS-1 cell growth in a cell viability assay.

[39] = system: SW872; details: Homo sapiens, SW872;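 also: growth inhibition of SW872 cells, read out by a viability assay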
Description: SANGER: Inhibition of human SW872 cell growth in a cell viability assay.

[40] = system: A388; details: Homo sapiens, A388;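 also: growth inhibition of human A388 cells, read out with a cell viability assay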
Description: SANGER: Inhibition of human A388 cell growth in a cell viability assay.

[41] = system: A498; details: Homo sapiens, A498;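 also: growth inhibition of human A498 cells, read out with a cell viability assay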
Description: SANGER: Inhibition of human A498 cell growth in a cell viability assay.

[42] = system: ALL-PO; details: Homo sapiens, ALL-PO;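 also: growth inhibition of ALL-PO cells, read out by a cell viability assay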
Description: SANGER: Inhibition of human ALL-PO cell growth in a cell viability assay.

[43] = system: ATN-1; details: Homo sapiens, ATN-1;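 also: growth inhibition of human ATN-1 cells, read out with a cell viability assay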
Description: SANGER: Inhibition of human ATN-1 cell growth in a cell viability assay.

[44] = system: TE-10; details: Homo sapiens, TE-10;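 also: growth inhibition of TE-10 cells, measured by a cell viability assay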
Description: SANGER: Inhibition of human TE-10 cell growth in a cell viability assay.

[45] = system: TE-5; details: Homo sapiens, TE-5;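 also: inhibition of cell growth, read out by a cell viability assay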
Description: SANGER: Inhibition of human TE-5 cell growth in a cell viability assay.

[46] = system: TE-8; details: Homo sapiens, TE-8;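 also: growth inhibition of TE-8 cells, measured with a cell viability readout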
Description: SANGER: Inhibition of human TE-8 cell growth in a cell viability assay.

[47] = system: TGBC1TKB; details: Homo sapiens, TGBC1TKB;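 also: growth inhibition of TGBC1TKB cells, read out by a cell viability assay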
Description: SANGER: Inhibition of human TGBC1TKB cell growth in a cell viability assay.

[48] = system: CCRF-CEM; details: Homo sapiens, CCRF-CEM;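 also: inhibition of CCRF-CEM cell growth, measured by a cell viability assay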
Description: SANGER: Inhibition of human CCRF-CEM cell growth in a cell viability assay.

[49] = system: COLO-320-HSR; details: Homo sapiens, COLO-320-HSR;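 also: growth inhibition of COLO-320-HSR cells, determined with a cell viability assay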
Description: SANGER: Inhibition of human COLO-320-HSR cell growth in a cell viability assay.

CC(=O)O[C@H]1C(=O)[C@@]2(C)[C@H]([C@H](OC(=O)c3ccccc3)[C@]3(O)C[C@H](OC(=O)[C@H](O)[C@@H](NC(=O)c4ccccc4)c4ccccc4)C(C)=C1C3(C)C)[C@]1(OC(C)=O)CO[C@@H]1C[C@@H]2O [PACLITAXEL]
IC50 [1]: > 102 nM | IC50 [2]: > 102 nM | IC50 [3]: 78.1 nM | IC50 [4]: 8.45 nM | IC50 [5]: > 102 nM | IC50 [6]: 72.6 nM | IC50 [7]: 12.9 nM | IC50 [8]: 6.94 nM | IC50 [9]: 102 nM | IC50 [10]: 4.34 nM | IC50 [11]: 41.4 nM | IC50 [12]: 9.66 nM | IC50 [13]: 29.5 nM | IC50 [14]: 15.2 nM | IC50 [15]: 12.7 nM | IC50 [16]: 12.3 nM | IC50 [17]: 20.4 nM | IC50 [18]: > 102 nM | IC50 [19]: 41.1 nM | IC50 [20]: 77.1 nM | IC50 [21]: 0.317 nM | IC50 [22]: > 102 nM | IC50 [23]: > 102 nM | IC50 [24]: 47.7 nM | IC50 [25]: 97.9 nM | IC50 [26]: > 102 nM | IC50 [27]: > 102 nM | IC50 [28]: > 102 nM | IC50 [29]: 6.5 nM | IC50 [30]: 2.09 nM | IC50 [31]: > 102 nM | IC50 [32]: 1.3 nM | IC50 [33]: 10.3 nM | IC50 [34]: 38.2 nM | IC50 [35]: 57.1 nM | IC50 [36]: 61.3 nM | IC50 [37]: 24 nM | IC50 [38]: 4.01 nM | IC50 [39]: 42.1 nM | IC50 [40]: 8.74 nM | IC50 [41]: > 102 nM | IC50 [42]: 6.3 nM | IC50 [43]: 6.09 nM | IC50 [44]: 1.54 nM | IC50 [45]: 15 nM | IC50 [46]: 1.17 nM | IC50 [47]: 17.5 nM | IC50 [48]: 8.71 nM | IC50 [49]: > 102 nM

N[C@@H](CSC(c1ccccc1)(c1ccccc1)c1ccccc1)C(=O)O [S-TRITYL-L-CYSTEINE]
IC50 [1]: > 5120 nM | IC50 [2]: > 5120 nM | IC50 [3]: 3200 nM | IC50 [4]: 1410 nM | IC50 [5]: > 5120 nM | IC50 [6]: > 5120 nM | IC50 [7]: 1640 nM | IC50 [8]: 1620 nM | IC50 [9]: > 5120 nM | IC50 [10]: 285 nM | IC50 [11]: 2750 nM | IC50 [12]: > 5120 nM | IC50 [13]: 941 nM | IC50 [14]: 1540 nM | IC50 [15]: 1690 nM | IC50 [16]: 430 nM | IC50 [17]: > 5120 nM | IC50 [18]: 3690 nM | IC50 [19]: 2840 nM | IC50 [20]: 2900 nM | IC50 [21]: 537 nM | IC50 [22]: > 5120 nM | IC50 [23]: > 5120 nM | IC50 [24]: 4340 nM | IC50 [25]: 4750 nM | IC50 [26]: > 5120 nM | IC50 [27]: > 5120 nM | IC50 [28]: > 5120 nM | IC50 [29]: 970 nM | IC50 [30]: > 5120 nM | IC50 [31]: > 5120 nM | IC50 [32]: 1490 nM | IC50 [33]: > 5120 nM | IC50 [34]: > 5120 nM | IC50 [35]: > 5120 nM | IC50 [36]: 3010 nM | IC50 [37]: 2060 nM | IC50 [38]: > 5120 nM | IC50 [39]: 795 nM | IC50 [40]: 620 nM | IC50 [41]: > 5120 nM | IC50 [42]: 2250 nM | IC50 [43]: 859 nM | IC50 [44]: 730 nM | IC50 [45]: > 5120 nM | IC50 [46]: 722 nM | IC50 [47]: 2420 nM | IC50 [48]: 2110 nM | IC50 [49]: 894 nM
